# Measured values reported in patent US20100184676A1, “USE OF A PEPTIDE AS A THERAPEUTIC AGENT” (priority 2007, published 2010).
# Columns and labels:
# HepG2-2.2.15 cells = test: Cell viability (dye uptake) in HBV assay; type: cell-based; conditions: peptide 10 micrograms per ml
# Method: (§1) HepG2-2.2.15 cells were plated in 96-well microtiter plates. After 16-24 hours the confluent monolayer of HepG2-2.2.15 cells was washed and the medium was replaced with complete medium containing test peptide—10 micrograms per ml—in duplicate. Lamivudine (3TC) was used as the positive control, while media alone was added to the cells as a negative control (virus control). Three days later the culture medium was replaced with fresh medium containing the peptide. Six days following the initial administration of the peptide, the cell culture supernatants was collected, treated with pronase and DNAse and then used in a real-time quantitative TaqMan PCR assay. The PCR-amplified HBV DNA was detected in real-time by monitoring increases in fluorescence signals that result from the exonucleolytic degradation of a quenched fluorescence probe molecule that hybridizes to the amplified HBV DNA. For each PCR amplification, a standard curve was simultaneously generated using dilutions of purified HBV DNA. Antiviral activity was calculated from the reduction in HBV DNA levels (% virus control). A novel dye uptake assay was then employed to measure cell viability, which is used to calculate toxicity (% cell control).
# HIV-1IIIB = test: HIV-1 antiviral assay (CPE reduction, MTS) in CEM-SS cells; type: cell-based; conditions: peptide 10 micrograms per ml, 6 days post-infection
# CEM-SS cells = test: Cytotoxicity (MTS cell viability) in HIV-1 experiments; conditions: peptide 10 micrograms per ml
# MRSA = conditions: 5 micrograms per ml
# in vitro [1] = conditions: human, MRC-5 cells
# [2] = test system: Human Peripheral Blood Mononuclear Cells (PBMC); test: T cell proliferation assay (PHA, 3H-thymidine); type: cell-based; conditions: peptide 10 micrograms per ml, 3H-thymidine incorporation
# RAW 264.7 cells = test: Phagocytosis assay (Fluorescein-labeled Escherichia coli); type: cell-based, mouse; conditions: peptide 10 micrograms per ml, flow cytometry
# TNF alpha = TNF alpha production assay (LPS-stimulated macrophages, ELISA); type: cell-based, human; conditions: macrophages from PBMC, peptide 10 micrograms per ml, lipopolysaccharide 200 ng/ml, overnight
# Description: Not stimulated macrophages served as negative background control.
# in vitro [3] = conditions: human, CEM-SS cells
# [4] = test system: Human Peripheral Blood Mononuclear Cells (PBMC); test: B cell proliferation assay (SAC plus Interleukin-2, 3H-thymidine); type: cell-based; conditions: peptide 10 micrograms per ml, 3H-thymidine incorporation
# spleen cells = test: Th1/Th2 cytokine profiling assay; type: cell-based, Balb/c mice; conditions: Ovalbumin restimulation; peptide 10 micrograms per ml; 72 hours
# [5] = test system: hepatitis B virus (HBV) ayw strain; test: HBV experimental assay system (secreted HBV DNA, TaqMan PCR); type: cell-based; conditions: peptide 10 micrograms per ml; six days; HBV DNA in supernatant
# Method: HepG2-2.2.15 is a stable cell line containing the hepatitis B virus (HBV) ayw strain genome (ATCC Cat. No. CRL-11997). Antiviral compounds blocking any late step of viral replication such as transcription, translation, pregenome encapsidation, reverse transcription, particle assembly and release can be identified and characterized using this cell line.
# as §1, with “Lamivudine (3TC) was used as the positive control, while media alone was added to the cells as a negative control (virus control).” left out, “A novel dye uptake assay was then employed to measure cell viability, which is used to calculate toxicity (% cell control).” left out
# HCMV strain AD169 = test: HCMV plaque reduction assay in MRC-5 cells; conditions: HCMV AD169 in MRC-5 cells; peptide 10 micrograms per ml; 7-10 days
# HUVEC = test: Endothelial tube formation assay; type: cell-based, human; conditions: peptide 10 micrograms per ml, 20 hours, average tubule length
# Description: Positive control was vehicle only.
# Streptococcus pneumoniae = type: cell-based; conditions: 5 micrograms per ml
# A549 cells [6] = test: Apoptosis prevention assay (C2 ceramide, Annexin-5); type: cell-based, human; conditions: A549 cells pretreated 30 min, peptide 10 micrograms per ml
# A549 cells [7] = test: Apoptosis induction assay (Annexin-5); type: cell-based, human; conditions: 24 hours
# [8] = Cell viability (dye uptake) in HBV assay; type: cell-based; conditions: human, HepG2-2.2.15 cells, peptide 10 micrograms per ml
# Method: as §1
# [9] = test system: Primary Human endothelial cells (HUVEC); test: Endothelial cell migration assay; type: cell-based; conditions: peptide 10 micrograms per ml, 22 hours
# Pseudomonas aeruginosa = type: cell-based; conditions: 5 micrograms per ml
# A549 cells [10] = test: Propidium iodide cell cycle assay; type: cell-based, human; conditions: 24 hours, peptide 10 micrograms per ml, FACS
# Description: Disregulation of the cell cycle components may lead to tumor formation.
# MRC-5 cells = conditions: human, 6 days
compound,measurement,setting,value
"Nc1ccn([C@@H]2CS[C@H](CO)O2)c(=O)n1 [3TC, Lamivudine, reference compound]",% Cell viability,HepG2-2.2.15 cells,95.8%
Cc1cn([C@H]2C[C@H](N=[N+]=[N-])[C@@H](CO)O2)c(=O)[nH]c1=O [AZT],% CPE reduction in HIV-1 infected CEM-SS cells,HIV-1IIIB,99%
same,% Cell viability,CEM-SS cells,97%
CC[C@H](C)[C@H](NC(=O)[C@H](CCC(N)=O)NC(=O)[C@H](Cc1c[nH]cn1)NC(=O)[C@H](C)NC(=O)[C@H](CC(C)C)NC(=O)[C@H](CCCCN)NC(=O)[C@H](CCC(N)=O)NC(=O)[C@@H](NC(=O)[C@@H](NC(=O)[C@@H]1CSSC[C@H](NC(=O)CNC(=O)[C@H](Cc2ccccc2)NC(=O)[C@H](CO)NC(=O)[C@H](CCCNC(=N)N)NC(=O)[C@H](CC(C)C)NC(=O)CNC(=O)[C@H](CCC(N)=O)NC(=O)[C@H](Cc2ccccc2)NC(=O)[C@H](CC(N)=O)NC(=O)[C@H](CC(N)=O)NC(=O)[C@H](CCSC)NC(=O)[C@H](CO)NC(=O)[C@H](CCC(N)=O)NC(=O)[C@H](CCCNC(=N)N)NC(=O)[C@@H](N)Cc2ccc(O)cc2)C(=O)N[C@@H](CCCNC(=N)N)C(=O)N[C@@H](Cc2ccccc2)C(=O)NCC(=O)N[C@@H]([C@@H](C)O)C(=O)N1)[C@@H](C)O)C(C)C)C(=O)N[C@@H](Cc1ccc(O)cc1)C(=O)N[C@@H](CCC(N)=O)C(=O)N[C@@H](Cc1ccccc1)C(=O)N[C@H](C(=O)N[C@@H](CC(=O)O)C(=O)N[C@@H](CCCCN)C(=O)N[C@@H](CC(=O)O)C(=O)N[C@@H](CCCCN)C(=O)N[C@@H](CC(=O)O)C(=O)N[C@@H](CC(N)=O)C(=O)N[C@H](C(=O)N[C@@H](C)C(=O)N1CCC[C@H]1C(=O)N[C@@H](CCCNC(=N)N)C(=O)N[C@@H](CO)C(=O)N[C@@H](CCCCN)C(=O)N[C@H](C(=O)N[C@@H](CO)C(=O)N1CCC[C@H]1C(=O)N[C@@H](CCC(N)=O)C(=O)NCC(=O)N[C@@H](Cc1ccc(O)cc1)C(N)=O)[C@@H](C)CC)C(C)C)[C@@H](C)O [Adrenomedullin],% inhibition,MRSA,0.0%
same,viability at 144 h,in vitro [1],100%
same,% of PHA induced control,[2],107.1%
same,% of control phagocytosis,RAW 264.7 cells,108.8%
same,% of LPS induction,TNF alpha,100.9%
same,viability at 10 micrograms per ml,in vitro [3],92.9%
same,% of SAC/IL2 induced control,[4],111.0%
same,IFNγ spleen cells; TH1 response (% of control),spleen cells,24.5 % of control
same,IL-2 spleen cells (% of control),spleen cells,0.0 % of control
same,IL-4 spleen cells; TH2 response (% of control),spleen cells,0.0 % of control
same,IL-5 spleen cells; TH2 response (% of control),spleen cells,28.1 % of control
same,TNF-a spleen cells; TH1 response (% of control),spleen cells,66.7 % of control
same,% inhibition of HBV replication in HEP G2 cells,[5],0.0%
same,% plaque reduction,HCMV strain AD169,0.0%
same,% inhibition of tube formation,HUVEC,26%
same,% inhibition,Streptococcus pneumoniae,0.0%
same,% CPE reduction in HIV-1 infected CEM-SS cells,HIV-1IIIB,0.0%
same,% prevention of ceramide induced apoptosis,A549 cells [6],0.0%
same,% of induction,A549 cells [7],1.5%
same,"viability at 144 h, 10 micrograms per ml",[8],100%
same,% inhibition of migration,[9],−34%
same,% inhibition,Pseudomonas aeruginosa,0.0%
same,Cell cycle analysis G0/G1,A549 cells [10],57.8
same,Cell cycle analysis G2/M,A549 cells [10],9.5
same,Cell cycle analysis S,A549 cells [10],32.7
"Nc1nc(O)c2ncn(COC(CO)CO)c2n1 [Ganciclovir, reference compound]",% plaque reduction,HCMV strain AD169,100%
same,% Cell viability,MRC-5 cells,100%
"CC(C)(C)NC(=O)[C@@H]1CN(Cc2cccnc2)CCN1C[C@@H](O)C[C@@H](Cc1ccccc1)C(=O)N[C@H]1c2ccccc2C[C@H]1O [Indinavir, indinavir]",% CPE reduction in HIV-1 infected CEM-SS cells,HIV-1IIIB,100%
